Experimental data taken from ChEMBL document CHEMBL1131004, “Optimizing the binding of fullerene inhibitors of the HIV-1 protease through predicted increases in hydrophobic desolvation” (J Med Chem, 1998).

Target: Human immunodeficiency virus type 1 protease (Human immunodeficiency virus 1, UniProt Q72874)
Experiment: Binding affinity towards HIV-1 Protease

| Structure (SMILES) | Ki |
| --- | --- |
| O=C(O)CCC(=O)NCCc1ccc(C2(c3ccc(CCNC(=O)CCC(=O)O)cc3)C34c5c6c7c8c9c%10c(c%11c%12c3c3c5c5c%13c6c6c7c7c9c9c%14c%10c%10c%11c%11c%12c%12c3c3c5c5c%13c%13c6c6c7c9c7c9c%14c%10c%10c%11c%11c%12c3c3c5c5c%13c6c7c6c9c%10c%11c3c56)C824)cc1 | 5000 nM |
| OC(c1ccccc1)C1(c2ccccc2)C23c4c5c6c7c8c9c(c%10c%11c2c2c4c4c%12c5c5c6c6c8c8c%13c9c9c%10c%10c%11c%11c2c2c4c4c%12c%12c5c5c6c8c6c8c%13c9c9c%10c%10c%11c2c2c4c4c%12c5c6c5c8c9c%10c2c45)C731 (stereo not drawn) | 103 nM |
| CC(C)C1CC(O)C(C(C)C)C23c4c5c6c7c8c9c(c%10c%11c2c2c4c4c%12c5c5c6c6c8c8c%13c9c9c%10c%10c%11c%11c2c2c4c4c%12c%12c5c5c6c8c6c8c%13c9c9c%10c%10c%11c2c2c4c4c%12c5c6c5c8c9c%10c2c45)C713 (stereo not drawn) | 150 nM |
